Source: ChEMBL document CHEMBL1127942, “Phenol based tripeptide inhibitors of ras farnesyl protein transferase” (Bioorg Med Chem Lett, 1994)

What follows are molecules tested against Protein farnesyltransferase (Homo sapiens, UniProt P49354+P49356) (assay: Inhibition of Protein farnesyltransferase (FPT)). Conditions: read-out: I50.
Assay type: protein-complex assay

SMILES | IC50 [µM]
CC(C)C[C@H](NC(=O)[C@@H](NC(=O)c1ccc(OCc2ccccc2)cc1)C(C)C)C(=O)N[C@@H](CO)C(=O)O | 166
CC(C)C[C@H](NC(=O)[C@@H](NC(=O)c1cccc(O)c1OCc1ccccc1)C(C)C)C(=O)N[C@@H](CO)C(=O)O | 157
CC(C)C[C@H](NC(=O)[C@@H](NC(=O)c1cccc(OCc2ccccc2)c1O)C(C)C)C(=O)N[C@@H](CO)C(=O)O | > 360
CC(C)C[C@H](NC(=O)[C@@H](NC(=O)c1ccccc1O)C(C)C)C(=O)N[C@@H](CO)C(=O)O | > 360
CC(C)C[C@H](NC(=O)[C@@H](NC(=O)[C@@H](N)CO)C(C)C)C(=O)N[C@@H](CO)C(=O)O | > 360
CC(C)C[C@H](NC(=O)[C@@H](NC(=O)c1ccc(O)cc1)C(C)C)C(=O)N[C@@H](CO)C(=O)O | > 360
CC(C)C[C@H](NC(=O)[C@@H](NC(=O)c1cccc(OCc2ccccc2)c1)C(C)C)C(=O)N[C@@H](CO)C(=O)O | > 360

Now those with a lower IC50, led by results:

IC50 [µM] | SMILES
1 | CC(C)C[C@H](NC(=O)[C@@H](NC(=O)CCS)C(C)C)C(=O)N[C@@H](CO)C(=O)O
29 | CC(C)C[C@H](NC(=O)[C@@H](NC(=O)c1cccc(O)c1)C(C)C)C(=O)N[C@@H](CO)C(=O)O
63 | CC(C)C[C@H](NC(=O)[C@@H](NC(=O)c1ccccc1OCc1ccccc1)C(C)C)C(=O)N[C@@H](CO)C(=O)O
137 | CC(C)C[C@H](NC(=O)[C@@H](NC(=O)c1cc(O)ccc1OCc1ccccc1)C(C)C)C(=O)N[C@@H](CO)C(=O)O
